Assays:
Format in all cases: functional
Malme-3M = assay: Cytotoxicity against human MALME-3M cells assessed as cell growth at 0.1 uM after 48 hrs by sulforhodamine B assay relative to control; details: read-out: Activity
NCI/ADR-RES = assay: Cytotoxicity against human NCI/ADR-RES cells assessed as growth inhibition after 48 hrs by sulforhodamine B assay
NCI-H460 [1] = assay: Cytotoxicity against human NCI-H460 cells assessed as cell growth at 100 uM after 48 hrs by sulforhodamine B assay relative to control; details: NCI-H460, 48 h, read-out: Activity
UACC-62 [2] = assay: Cytotoxicity against human UACC62 cells assessed as cell growth at 0.1 uM after 48 hrs by sulforhodamine B assay relative to control; details: UACC-62, 48 h, read-out: Activity
SF-268 = assay: Cytotoxicity against human SF268 cells assessed as cell growth at 10 uM after 48 hrs by sulforhodamine B assay relative to control; details: SF-268, 48 h, read-out: Activity
UO-31 = assay: Cytotoxicity against human UO31 cells assessed as growth inhibition after 48 hrs by sulforhodamine B assay; details: UO-31, 48 h
SK-OV-3 = assay: Cytotoxicity against human SKOV3 cells assessed as cell growth at 0.01 uM after 48 hrs by sulforhodamine B assay relative to control; details: SK-OV-3, 48 h, read-out: Activity
NCI-H522 [3] = assay: Cytotoxicity against human NCI-H522 cells assessed as cell growth at 0.01 uM after 48 hrs by sulforhodamine B assay relative to control; details: NCI-H522, 48 h, read-out: Activity
NCI-H460 [4] = assay: Cytotoxicity against human NCI-H460 cells assessed as cell growth at 1 uM after 48 hrs by sulforhodamine B assay relative to control; details: NCI-H460, 48 h, read-out: Activity
T47D [5] = assay: Cytotoxicity against human T47D cells assessed as cell growth at 0.1 uM after 48 hrs by sulforhodamine B assay relative to control; details: read-out: Activity
M14 = assay: Cytotoxicity against human M14 cells assessed as cell growth at 0.01 uM after 48 hrs by sulforhodamine B assay relative to control; details: M14, 48 h, read-out: Activity
UACC-62 [6] = assay: Cytotoxicity against human UACC62 cells assessed as growth inhibition after 48 hrs by sulforhodamine B assay; details: UACC-62, 48 h
HCT-15 = assay: Cytotoxicity against human HCT15 cells assessed as growth inhibition after 48 hrs by sulforhodamine B assay; details: HCT-15, 48 h
MDA-MB-231 [7] = assay: Cytotoxicity against human MDA-MB-231 cells assessed as cell growth at 0.1 uM after 48 hrs by sulforhodamine B assay relative to control; details: MDA-MB-231, 48 h, read-out: Activity
NCI-H522 [8] = assay: Cytotoxicity against human NCI-H522 cells assessed as cell growth at 10 uM after 48 hrs by sulforhodamine B assay relative to control; details: NCI-H522, 48 h, read-out: Activity
A549 [9] = assay: Cytotoxicity against human A549/ATCC cells assessed as growth inhibition after 48 hrs by sulforhodamine B assay; details: A549, 48 h
OVCAR-3 = assay: Cytotoxicity against human OVCAR3 cells assessed as cell growth at 1 uM after 48 hrs by sulforhodamine B assay relative to control; details: OVCAR-3, 48 h, read-out: Activity
A549 [10] = assay: Cytotoxicity against human A549/ATCC cells assessed as cell growth at 0.01 uM after 48 hrs by sulforhodamine B assay relative to control; details: A549, 48 h, read-out: Activity
T47D [11] = assay: Cytotoxicity against human T47D cells assessed as growth inhibition after 48 hrs by sulforhodamine B assay
T47D [12] = assay: Cytotoxicity against human T47D cells assessed as cell growth at 0.01 uM after 48 hrs by sulforhodamine B assay relative to control; details: read-out: Activity
DU-145 = assay: Cytotoxicity against human DU145 cells assessed as cell growth at 1 uM after 48 hrs by sulforhodamine B assay relative to control; details: DU-145, 48 h, read-out: Activity
MDA-MB-231 [13] = assay: Cytotoxicity against human MDA-MB-231 cells assessed as growth inhibition after 48 hrs by sulforhodamine B assay; details: MDA-MB-231, 48 h
KM12 = assay: Cytotoxicity against human KM12 cells assessed as cell growth at 100 uM after 48 hrs by sulforhodamine B assay relative to control; details: KM12, 48 h, read-out: Activity
HCT-116 = assay: Cytotoxicity against human HCT116 cells assessed as cell growth at 0.1 uM after 48 hrs by sulforhodamine B assay relative to control; details: HCT-116, 48 h, read-out: Activity
RXF 393 = assay: Cytotoxicity against human RXF393 cells assessed as growth inhibition after 48 hrs by sulforhodamine B assay; details: RXF 393, 48 h
A498 = assay: Cytotoxicity against human A498 cells assessed as cell growth at 0.01 uM after 48 hrs by sulforhodamine B assay relative to control; details: A498, 48 h, read-out: Activity
SF-539 [14] = assay: Cytotoxicity against human SF539 cells assessed as cell growth at 10 uM after 48 hrs by sulforhodamine B assay relative to control; details: SF-539, 48 h, read-out: Activity
U-251 [15] = assay: Cytotoxicity against human U251 cells assessed as growth inhibition after 48 hrs by sulforhodamine B assay; details: U-251, 48 h
SF-539 [16] = assay: Cytotoxicity against human SF539 cells assessed as cell growth at 0.01 uM after 48 hrs by sulforhodamine B assay relative to control; details: SF-539, 48 h, read-out: Activity
U-251 [17] = assay: Cytotoxicity against human U251 cells assessed as cell growth at 0.1 uM after 48 hrs by sulforhodamine B assay relative to control; details: U-251, 48 h, read-out: Activity
OVCAR-5 = assay: Cytotoxicity against human OVCAR5 cells assessed as cell growth at 100 uM after 48 hrs by sulforhodamine B assay relative to control; details: OVCAR-5, 48 h, read-out: Activity
NCI-H23 = assay: Cytotoxicity against human NCI-H23 cells assessed as cell growth at 1 uM after 48 hrs by sulforhodamine B assay relative to control; details: NCI-H23, 48 h, read-out: Activity
MDA-MB-468 = assay: Cytotoxicity against human MDA-MB-468 cells assessed as cell growth at 100 uM after 48 hrs by sulforhodamine B assay relative to control; details: MDA-MB-468, 48 h, read-out: Activity
SK-MEL-5 = assay: Cytotoxicity against human SK-MEL-5 cells assessed as cell growth at 1 uM after 48 hrs by sulforhodamine B assay relative to control; details: SK-MEL-5, 48 h, read-out: Activity
MDA-MB-435 = assay: Cytotoxicity against human MDA-MB-435 cells assessed as cell growth at 0.1 uM after 48 hrs by sulforhodamine B assay relative to control; details: MDA-MB-435, 48 h, read-out: Activity

`COc1cc2c(cc1OC)C(=O)/C(=C/c1cc(-c3ccc4c(c3)OCO4)n[nH]1)C2` showed a growth at 0.1 µM (Malme-3M) of 84%, a GI50 (NCI/ADR-RES) of 2.25 µM and an LC50 (NCI/ADR-RES) of over 100 µM. For the same molecule, the TGI (NCI/ADR-RES) was 6.87 µM, the growth at 100 µM (NCI-H460 [1]) was -67% and the growth at 0.1 µM (UACC-62 [2]) was 106%. For the same molecule, the growth at 10 µM (SF-268) was -75%, the GI50 (UO-31) was 1.29 µM and the LC50 (UO-31) was 5.51 µM. The TGI (UO-31) was 2.67 µM, the growth at 0.01 µM (SK-OV-3) was 102% and the growth at 0.01 µM (NCI-H522 [3]) was 91%. It also gave a growth at 1 µM (NCI-H460 [4]) of 82%, a growth at 0.1 µM (T47D [5]) of 95% and a growth at 0.01 µM (M14) of 99%. It also gave a GI50 (UACC-62 [6]) of 1.63 µM, an LC50 (UACC-62 [6]) of 5.66 µM and a TGI (UACC-62 [6]) of 3.04 µM. For the same molecule, the GI50 (HCT-15) was 1.12 µM, the LC50 (HCT-15) was 7.07 µM and the TGI (HCT-15) was 2.81 µM. For the same molecule, the growth at 0.1 µM (MDA-MB-231 [7]) was 99%, the growth at 10 µM (NCI-H522 [8]) was -80% and the GI50 (A549 [9]) was 1.96 µM. The LC50 (concentration giving 50% net cell kill) (A549 [9]) was 37.1 µM, the TGI (A549 [9]) was 5.45 µM and the growth at 1 µM (OVCAR-3) was 75%. The growth at 0.01 µM (A549 [10]) was 98%, the GI50 (T47D [11]) was 1.31 µM and the LC50 (T47D [11]) was 5.62 µM. It also gave a TGI (T47D [11]) of 2.72 µM, a growth at 0.01 µM (T47D [12]) of 92% and a growth at 1 µM (DU-145) of 77%. For the same molecule, the GI50 (MDA-MB-231 [13]) was 1.66 µM, the LC50 (MDA-MB-231 [13]) was 6.18 µM and the TGI (MDA-MB-231 [13]) was 3.2 µM. For the same molecule, the growth at 100 µM (KM12) was -80%, the growth at 0.1 µM (HCT-116) was 105% and the GI50 (RXF 393) was 1.54 µM. It also gave an LC50 (concentration killing 50% of cells) (RXF 393) of 6.62 µM, a TGI (RXF 393) of 3.19 µM and a growth at 0.01 µM (A498) of 80%. The growth at 10 µM (SF-539 [14]) was -96%, the GI50 (U-251 [15]) was 1.09 µM and the LC50 (U-251 [15]) was 4.9 µM. For the same molecule, the TGI (U-251 [15]) was 2.31 µM, the growth at 0.01 µM (SF-539 [16]) was 100% and the growth at 0.1 µM (U-251 [17]) was 95%. The growth at 100 µM (OVCAR-5) was -86%, the growth at 1 µM (NCI-H23) was 92% and the growth at 100 µM (MDA-MB-468) was -86%. It also gave a growth at 1 µM (SK-MEL-5) of 92% and a growth at 0.1 µM (MDA-MB-435) of 96%.
With `COc1ccc(C(=O)/C=C/c2cc(-c3cc(OC)c(OC)c(OC)c3)n[nH]2)cc1OC` the growth at 0.1 µM (Malme-3M) was 92%, the LC50 (NCI/ADR-RES) was over 100 µM and the TGI (NCI/ADR-RES) was 15.7 µM. The growth at 100 µM (NCI-H460 [1]) was -65%, the growth at 0.1 µM (UACC-62 [2]) was 95% and the growth at 10 µM (SF-268) was -60%. It also gave an LC50 (UO-31) of 5.17 µM, a TGI (UO-31) of 2.57 µM and a growth at 0.01 µM (SK-OV-3) of 100%. For the same molecule, the growth at 0.01 µM (NCI-H522 [3]) was 83%, the growth at 1 µM (NCI-H460 [4]) was 70% and the growth at 0.1 µM (T47D [5]) was 98%. It also gave a growth at 0.01 µM (M14) of 97%, an LC50 (UACC-62 [6]) of 5.98 µM and a TGI (UACC-62 [6]) of 3.22 µM. For the same molecule, the LC50 (HCT-15) was 6.4 µM, the TGI (HCT-15) was 2.85 µM and the growth at 0.1 µM (MDA-MB-231 [7]) was 101%. The growth at 10 µM (NCI-H522 [8]) was -95%, the LC50 (concentration giving 50% net cell kill) (A549 [9]) was 15.7 µM and the TGI (A549 [9]) was 4.59 µM. It also gave a growth at 1 µM (OVCAR-3) of 91%, a growth at 0.01 µM (A549 [10]) of 98% and an LC50 (T47D [11]) of over 100 µM. For the same molecule, the TGI (T47D [11]) was 4.36 µM, the growth at 0.01 µM (T47D [12]) was 93% and the growth at 1 µM (DU-145) was 32%. The LC50 (MDA-MB-231 [13]) was 6.32 µM, the TGI (MDA-MB-231 [13]) was 3.06 µM and the growth at 100 µM (KM12) was -75%. The growth at 0.1 µM (HCT-116) was 100%, the LC50 (concentration killing 50% of cells) (RXF 393) was 5.23 µM and the TGI (RXF 393) was 2.66 µM. It also gave a growth at 0.01 µM (A498) of 97%, a growth at 10 µM (SF-539 [14]) of -94% and an LC50 (U-251 [15]) of 4.99 µM. The TGI (U-251 [15]) was 2.48 µM, the growth at 0.01 µM (SF-539 [16]) was 97% and the growth at 0.1 µM (U-251 [17]) was 95%. It also gave a growth at 100 µM (OVCAR-5) of -71%, a growth at 1 µM (NCI-H23) of 93% and a growth at 100 µM (MDA-MB-468) of -87%. It also gave a growth at 1 µM (SK-MEL-5) of 91% and a growth at 0.1 µM (MDA-MB-435) of 92%.

From ChEMBL document CHEMBL4138123, “Design, synthesis and biological evaluation of novel pyrazolochalcones as potential modulators of PI3K/Akt/mTOR pathway and inducers of apoptosis in breast cancer cells” (Eur J Med Chem, 2017)
